From article PMC12948223, “HSP70 Interactome‐Mediated Proteolysis Targeting Chimera (HSP70‐PROTAC) for Ferroptosis‐Driven Cancer Treatment” (Advanced Science, 2025) come the findings set out here.

One experiment concerns the target T1, human Hsc70 (Homo sapiens, UniProt P11142).
T1 construct: purchased MedChemExpress HY-P73915A
As to the kind of experiment: SPR binding to immobilized Hsc70 (binary). The conditions noted are these: immobilized Hsc70, 25 °C. The procedure: (§1) The SPR data was generated by our Shared Instrumentation Core Facility at the Hangzhou Institute of Medicine (HIM), Chinese Academy of Sciences. The in vitro binding affinity of compound GDAz‐3 to recombinant proteins (Hsc70, MedChemExpress, #HY‐P73915A; GPX4, Cayman, Item No. 26 906) was evaluated using a Biacore 8K system (Cytiva (GE)) with the method of LMW multi‐cycle kinetics/affinity. Pipelines and chips were flushed with PBS (pH 7.4) running buffer, and then, human Hsc70 was immobilized on a CM5 sensor chip. Analysis was performed at a flow rate of 30 µL min^−1 at 25 °C with the injection of incremental concentrations of compounds dissolved in buffer solution (the final concentration of DMSO was 5%). For ternary‐complex binding measurements, Hsc70 was immobilized on a CM5 sensor chip, and compound GDAz‐3 at a concentration of 1 µM was preincubated with GPX4. The binding and dissociation durations were recorded as response unit values for 120 and 120 s in succession, respectively. Finally, the data were analyzed by Biacore evaluation software with the method of LMW multi‐cycle kinetics/affinity.
On the technique in general: SPR reads the build-up and loss of mass on a sensor chip optically.

The target of the next experiment is T2, GPX4 (Homo sapiens, UniProt P36969).
T2 construct: purchased Cayman 26 906
T2 sequence (P36969 28-197 limits assumed): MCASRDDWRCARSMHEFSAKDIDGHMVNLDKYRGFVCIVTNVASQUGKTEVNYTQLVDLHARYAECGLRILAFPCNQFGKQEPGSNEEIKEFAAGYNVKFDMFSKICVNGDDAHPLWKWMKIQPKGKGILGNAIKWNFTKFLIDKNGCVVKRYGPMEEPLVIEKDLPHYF
As to the kind of experiment: SPR binding to GPX4 recombinant protein. As for the experimental part:
as §1

Experiment [1] has as its target T3, Hsc70 in the presence of GPX4 protein (Homo sapiens, UniProt P11142+P36969).
T3 construct: purchased MedChemExpress (Hsc70); Cayman (GPX4) HY-P73915A; 26 906
The experiment in a line: SPR ternary-complex binding (GDAz-3 preincubated with GPX4, Hsc70 immobilized). The procedure: as §1

The subject of the next experiment is GPX4 mRNA. The experiment in a line: Real-time qRT-PCR of GPX4 mRNA in HT1080 cells. The class given is cell-based, human. As to conditions: HT1080 cells, 0.1, 0.3, 1 and 3 µM, 24 h. As for the experimental part: Real‐time qRT‐PCR was used to determine the mRNA expression level of GPX4 gene in HT1080 cells. In brief, HT1080 cells were seeded in 6‐well plates at a density of 4.5 × 10^5 cells per well and allowed to adhere overnight. Subsequently, the cells were exposed to different concentrations of the test compound GDAz‐3 for 24 h. Total RNA from the various cell samples was extracted using an RNA‐Quick Purification Kit (#RC112, Vazyme, Nanjing, China) according to the manufacturer's instructions. The concentrations of the isolated RNA samples were determined using NanoDrop. A total of 2 µg RNA was used to synthesize cDNA using Fast‐All‐in‐One RT Kit (#RT001, ES Science, Shanghai) following the manufacturer's guidelines. Real‐time PCR was performed using 2xSuper SYBR Green QPCR Master Mix (#QP002, ES Science, Shanghai) and determined using a CFX96 PCR instrument with the following cycling conditions: 95 °C for 5 min, 95 °C for 10 s, and 60 °C for 30 s, 40 cycles. The data were analyzed by Bio‐Rad CFX Manager Software version 3.1. The primers used in this experiment were as follows: […]
A general note: Real-time PCR tracks product formation cycle by cycle.

The next experiment concerns intracellular ROS. The experiment in a line: Intracellular ROS (DCFH-DA, CLSM) in HT1080 cells. Format: cell-based, human. As to conditions: 1 µM, 24 h. As for the experimental part:
To assess the total intracellular levels of reactive oxygen species (ROS), a DCFH‐DA (Dichloro‐dihydro‐fluorescein diacetate) assay kit was utilized. Briefly, HT1080 cells were seeded into confocal laser culture dishes and allowed to adhere for 24 h. Afterward, the cells were treated with GDAz‐3 at a concentration of 1 µM for 24 h. Subsequently, a DCFH‐DA probe was added to the cells and they were incubated for 20 min. After washing twice with PBS, the cells were visualized and imaged using a confocal laser scanning microscopy (CLSM).

The subject of another experiment is GSH. As to the kind of experiment: Intracellular GSH in HT1080 cells. Format: cell-based, human. As to conditions: 0.5 and 1 µM, 24 h. The procedure: HT1080 cells were seeded into 10‐cm‐diameter culture dishes at a density of 2 × 10⁶ cells overnight and then exposed to GDAz‐3 (0.1, 0.5, and 1 µM). Followed by 24‐h incubation, the culture medium was discarded, and the cells were digested with trypsin. The cells were collected and washed with PBS, and threefold of protein removal reagent S was added. Two freeze‐thaw cycles were performed using liquid nitrogen and a 37 °C water bath, followed by a 5‐min ice bath. The samples were centrifuged at 10 000 × g for 10 min at 4 °C. The supernatant was collected and measured according to the instructions of the Total Glutathione Assay Kit (Beyotime Biotechnology, S0052) using a kinetic assay method.

T3 sequence (P11142 whole entry, one chain of several): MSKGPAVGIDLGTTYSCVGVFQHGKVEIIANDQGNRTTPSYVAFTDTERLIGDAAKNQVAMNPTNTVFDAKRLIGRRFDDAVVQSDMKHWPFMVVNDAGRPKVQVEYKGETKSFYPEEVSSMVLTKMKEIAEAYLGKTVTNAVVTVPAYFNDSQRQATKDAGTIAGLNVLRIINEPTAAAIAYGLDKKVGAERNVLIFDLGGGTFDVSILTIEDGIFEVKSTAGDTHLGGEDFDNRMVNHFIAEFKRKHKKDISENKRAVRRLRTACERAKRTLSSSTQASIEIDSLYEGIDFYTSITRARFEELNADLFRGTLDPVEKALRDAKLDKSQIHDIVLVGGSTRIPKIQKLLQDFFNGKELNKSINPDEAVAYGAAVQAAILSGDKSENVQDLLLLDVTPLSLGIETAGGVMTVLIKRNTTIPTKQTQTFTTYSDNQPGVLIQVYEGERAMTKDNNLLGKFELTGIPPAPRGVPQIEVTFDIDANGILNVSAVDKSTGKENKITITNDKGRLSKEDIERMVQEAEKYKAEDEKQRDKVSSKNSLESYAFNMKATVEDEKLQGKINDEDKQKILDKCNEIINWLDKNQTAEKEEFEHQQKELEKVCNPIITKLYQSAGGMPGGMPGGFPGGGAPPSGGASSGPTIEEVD
T1 sequence (P11142 whole entry): as the sequence (P11142 whole entry, one chain of several) above

For the compound `COc1ccc(-c2nc(-c3cc(C(F)(F)F)cc(C(F)(F)F)c3)n(Cc3ccc(C(=O)NCCOCCOCCOCCn4cc(COc5ccc(N(C(=O)CCl)C(C(=O)NCCc6ccccc6)c6cccs6)cc5Cl)nn4)cc3)c2-c2ccc(OC)cc2)cc1` (stereo not shown) [GDAz-3, 4-((2-(3,5-bis(trifluoromethyl)phenyl)-4,5-bis(4-methoxyphenyl)-1H-imidazol-1-yl)methyl)-N-(2-(2-(2-(2-(4-((2-chloro-4-(2-chloro-N-(2-oxo-2-(phenethylamino)-1-(thiophen-2-yl)ethyl)acetamido)phenoxy)methyl)-1H-1,2,3-triazol-1-yl)ethoxy)ethoxy)ethoxy)ethyl)benzamide], the Kd worked out at 18 nM at human Hsc70; 1170 nM on GPX4; 23.9 nM in experiment [1] (SPR, 1 µM GDAz-3 preincubated with GPX4, immobilized Hsc70). In addition, in experiment [1] (ternary complex Hsc70/GDAz-3/GPX4), the “Cooperativity (α)” value was found to be 0.75. The “Level of GPX4 mRNA” value in the experiment with GPX4 mRNA is reported as “did not significantly affect”. Also, the “Level of intracellular ROS” value in the experiment with intracellular ROS is recorded as “enhanced”. For the same compound, the “Level of intracellular GSH” value in the experiment on GSH is reported as “significantly decreased”.

As a reminder, the Kd is the constant that tells how readily two partners part at equilibrium.
